Measured values reported in patent US11208412B2 (DAEGU-GYEONGBUK MEDICAL INNOVATION FOUNDATION, priority 2017, dated 2021).

Experiments:
Experiment in all cases: Kinase selectivity, DiscoverX scanMAX Kinase assay panel (% control)
Type in all cases: binding
[1] = target: T1, kinases of the scanMAX Kinase assay panel (Homo sapiens, UniProt Q8TF76); details: HASPIN; 1 uM
T1 construct: purchased DiscoverX Co. (contract measurement) scanMAX Kinase assay panel
T1 sequence (Q8TF76 1-798): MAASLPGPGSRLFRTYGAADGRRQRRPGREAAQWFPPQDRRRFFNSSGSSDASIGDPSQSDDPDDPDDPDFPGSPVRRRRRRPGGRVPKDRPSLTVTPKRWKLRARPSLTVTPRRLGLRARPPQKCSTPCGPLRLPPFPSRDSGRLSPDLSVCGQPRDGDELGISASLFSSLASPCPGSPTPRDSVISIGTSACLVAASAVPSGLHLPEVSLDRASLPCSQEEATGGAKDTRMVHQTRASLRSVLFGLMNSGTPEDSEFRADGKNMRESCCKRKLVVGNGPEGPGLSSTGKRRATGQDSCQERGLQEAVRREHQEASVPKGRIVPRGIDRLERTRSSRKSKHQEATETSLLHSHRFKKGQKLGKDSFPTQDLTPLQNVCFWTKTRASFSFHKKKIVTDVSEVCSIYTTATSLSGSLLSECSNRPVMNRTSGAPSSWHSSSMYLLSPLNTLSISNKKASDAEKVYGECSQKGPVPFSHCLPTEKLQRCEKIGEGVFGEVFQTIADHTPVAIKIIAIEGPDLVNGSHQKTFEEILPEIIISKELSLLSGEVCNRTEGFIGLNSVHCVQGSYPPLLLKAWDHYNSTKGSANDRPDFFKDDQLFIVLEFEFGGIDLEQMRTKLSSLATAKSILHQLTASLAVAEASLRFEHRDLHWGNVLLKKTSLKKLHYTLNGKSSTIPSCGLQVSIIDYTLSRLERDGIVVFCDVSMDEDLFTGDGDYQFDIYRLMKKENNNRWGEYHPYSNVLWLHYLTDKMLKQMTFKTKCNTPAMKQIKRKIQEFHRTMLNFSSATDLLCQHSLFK
Procedure, shortened: (§1)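 Single-point screen, 1 uM cpd in DMSO. % ctrl = (cpd − pos ctrl)/(neg ctrl − pos ctrl)×100; pos ctrl = 0%, DMSO neg ctrl = 100%. Hit cutoff <35%.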

[2] = target: T2, kinases of the scanMAX Kinase assay panel (Homo sapiens, UniProt Q96J92); details: kinase WNK4; 1 uM in DMSO
T2 construct: purchased DiscoverX Co. (contract measurement) scanMAX Kinase assay panel
T2 sequence (Q96J92 whole entry): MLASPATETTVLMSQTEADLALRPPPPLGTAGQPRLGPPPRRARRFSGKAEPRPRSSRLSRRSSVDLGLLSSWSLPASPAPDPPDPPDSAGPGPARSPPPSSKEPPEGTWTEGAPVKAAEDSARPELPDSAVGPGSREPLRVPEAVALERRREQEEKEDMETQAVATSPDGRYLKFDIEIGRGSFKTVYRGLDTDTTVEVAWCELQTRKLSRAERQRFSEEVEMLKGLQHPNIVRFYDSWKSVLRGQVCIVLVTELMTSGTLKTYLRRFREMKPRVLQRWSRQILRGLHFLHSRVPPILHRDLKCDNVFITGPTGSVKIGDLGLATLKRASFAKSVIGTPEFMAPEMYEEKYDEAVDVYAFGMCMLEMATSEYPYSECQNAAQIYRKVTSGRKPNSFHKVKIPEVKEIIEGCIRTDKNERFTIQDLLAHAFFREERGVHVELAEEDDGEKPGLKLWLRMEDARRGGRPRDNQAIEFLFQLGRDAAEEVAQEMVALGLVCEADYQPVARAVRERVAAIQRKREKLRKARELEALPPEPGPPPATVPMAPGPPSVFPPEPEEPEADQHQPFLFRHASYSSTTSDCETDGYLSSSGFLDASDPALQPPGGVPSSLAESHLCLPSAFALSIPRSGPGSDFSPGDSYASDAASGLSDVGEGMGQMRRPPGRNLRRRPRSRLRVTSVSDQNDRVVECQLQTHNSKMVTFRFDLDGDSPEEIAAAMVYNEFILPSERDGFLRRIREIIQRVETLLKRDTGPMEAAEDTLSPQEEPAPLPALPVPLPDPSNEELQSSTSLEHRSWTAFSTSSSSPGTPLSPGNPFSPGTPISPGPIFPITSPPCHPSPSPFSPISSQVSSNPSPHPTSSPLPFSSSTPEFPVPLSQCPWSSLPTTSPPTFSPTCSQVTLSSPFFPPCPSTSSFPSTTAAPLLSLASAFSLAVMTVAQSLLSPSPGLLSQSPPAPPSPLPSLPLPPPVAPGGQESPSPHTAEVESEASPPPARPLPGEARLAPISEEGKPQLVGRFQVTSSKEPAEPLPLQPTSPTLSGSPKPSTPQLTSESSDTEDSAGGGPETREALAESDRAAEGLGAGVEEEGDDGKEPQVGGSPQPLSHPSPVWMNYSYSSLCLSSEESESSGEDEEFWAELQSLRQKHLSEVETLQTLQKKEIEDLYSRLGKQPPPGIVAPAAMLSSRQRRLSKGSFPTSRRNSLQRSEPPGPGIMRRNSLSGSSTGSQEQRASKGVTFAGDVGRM
Procedure, shortened: as §1

[3] = target: T3, kinases of the scanMAX Kinase assay panel (Homo sapiens, UniProt Q02779); details: MLK2; 1 uM
T3 construct: purchased DiscoverX Co. (contract measurement) scanMAX Kinase assay panel
T3 sequence (Q02779 whole entry): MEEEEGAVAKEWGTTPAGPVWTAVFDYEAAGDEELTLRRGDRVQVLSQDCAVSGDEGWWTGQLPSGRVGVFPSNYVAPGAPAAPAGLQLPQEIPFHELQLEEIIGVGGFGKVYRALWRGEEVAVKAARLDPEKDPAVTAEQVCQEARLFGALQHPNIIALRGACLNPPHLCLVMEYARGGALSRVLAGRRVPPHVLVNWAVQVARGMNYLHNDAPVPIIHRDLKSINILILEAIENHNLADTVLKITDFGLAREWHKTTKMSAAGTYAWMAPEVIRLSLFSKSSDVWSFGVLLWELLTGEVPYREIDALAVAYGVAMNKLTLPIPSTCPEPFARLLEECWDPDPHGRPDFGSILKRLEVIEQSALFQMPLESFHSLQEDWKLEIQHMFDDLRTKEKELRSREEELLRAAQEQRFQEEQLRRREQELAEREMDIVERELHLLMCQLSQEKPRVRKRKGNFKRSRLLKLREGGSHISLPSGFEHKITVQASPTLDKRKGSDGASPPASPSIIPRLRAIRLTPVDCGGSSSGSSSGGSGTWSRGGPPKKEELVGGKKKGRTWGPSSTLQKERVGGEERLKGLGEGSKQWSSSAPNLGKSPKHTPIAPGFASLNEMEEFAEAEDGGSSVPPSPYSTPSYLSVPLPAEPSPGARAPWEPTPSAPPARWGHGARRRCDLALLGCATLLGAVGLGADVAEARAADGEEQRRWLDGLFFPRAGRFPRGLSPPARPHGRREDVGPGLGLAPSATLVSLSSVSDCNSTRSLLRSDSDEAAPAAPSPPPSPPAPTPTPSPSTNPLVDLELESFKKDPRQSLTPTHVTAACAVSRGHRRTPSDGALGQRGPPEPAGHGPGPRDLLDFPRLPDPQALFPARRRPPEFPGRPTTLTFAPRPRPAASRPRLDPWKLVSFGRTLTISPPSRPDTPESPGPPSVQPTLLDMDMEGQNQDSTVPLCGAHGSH
Procedure, shortened: as §1

[4] = target: T4, kinases of the scanMAX Kinase assay panel (Homo sapiens, UniProt P07332); details: FES; 1 uM
T4 construct: purchased DiscoverX Co. (contract measurement) scanMAX Kinase assay panel
Procedure, shortened: as §1

[5] = target: T5, kinases of the scanMAX Kinase assay panel (Homo sapiens, UniProt P42336, H1047L); details: PIK3CA(H1047L); 1 uM
T5 construct: purchased DiscoverX Co. (contract measurement) scanMAX Kinase assay panel
T5 sequence (P42336 whole entry H1047L): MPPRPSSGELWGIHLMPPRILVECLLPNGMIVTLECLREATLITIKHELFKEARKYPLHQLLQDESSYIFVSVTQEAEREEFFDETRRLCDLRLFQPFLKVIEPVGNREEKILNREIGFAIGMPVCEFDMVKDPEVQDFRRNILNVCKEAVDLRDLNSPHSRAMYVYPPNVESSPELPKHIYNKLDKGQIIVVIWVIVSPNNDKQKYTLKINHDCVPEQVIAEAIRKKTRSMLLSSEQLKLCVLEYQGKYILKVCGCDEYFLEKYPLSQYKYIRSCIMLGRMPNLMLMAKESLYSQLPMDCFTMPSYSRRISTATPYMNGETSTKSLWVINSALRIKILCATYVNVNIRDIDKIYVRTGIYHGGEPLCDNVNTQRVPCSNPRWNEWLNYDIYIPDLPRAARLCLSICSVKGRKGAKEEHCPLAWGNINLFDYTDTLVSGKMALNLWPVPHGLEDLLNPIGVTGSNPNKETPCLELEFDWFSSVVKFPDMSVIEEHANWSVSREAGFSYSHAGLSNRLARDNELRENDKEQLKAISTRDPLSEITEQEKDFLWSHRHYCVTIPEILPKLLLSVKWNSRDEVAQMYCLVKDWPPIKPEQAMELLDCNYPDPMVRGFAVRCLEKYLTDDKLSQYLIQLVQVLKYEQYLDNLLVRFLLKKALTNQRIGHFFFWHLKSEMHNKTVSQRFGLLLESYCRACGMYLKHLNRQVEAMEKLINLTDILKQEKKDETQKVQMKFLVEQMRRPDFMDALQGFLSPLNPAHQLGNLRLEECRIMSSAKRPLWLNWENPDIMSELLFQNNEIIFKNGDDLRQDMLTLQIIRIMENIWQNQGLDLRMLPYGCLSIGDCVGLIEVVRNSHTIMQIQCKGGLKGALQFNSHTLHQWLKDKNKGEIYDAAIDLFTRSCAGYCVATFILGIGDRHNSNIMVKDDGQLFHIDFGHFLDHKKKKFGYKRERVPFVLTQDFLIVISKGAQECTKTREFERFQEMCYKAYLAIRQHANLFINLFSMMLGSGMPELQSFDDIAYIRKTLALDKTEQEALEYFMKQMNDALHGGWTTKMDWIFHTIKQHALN
Procedure, shortened: as §1

[6] = target: T6, kinases of the scanMAX Kinase assay panel (Homo sapiens, UniProt Q15759); details: p38-beta; 1 uM
T6 construct: purchased DiscoverX Co. (contract measurement) scanMAX Kinase assay panel
Procedure, shortened: as §1

[7] = target: T7, kinases of the scanMAX Kinase assay panel (Homo sapiens, UniProt P42336, E545K); details: PIK3CA(E545K); 1 uM
T7 construct: purchased DiscoverX Co. (contract measurement) scanMAX Kinase assay panel
T7 sequence (P42336 whole entry E545K): as the sequence (P42336 whole entry H1047L) above, with E545K, L1047H counted along it
Procedure, shortened: as §1

[8] = target: T8, kinases of the scanMAX Kinase assay panel (Homo sapiens, UniProt O95835); details: LATS1; 1 uM
T8 construct: purchased DiscoverX Co. (contract measurement) scanMAX Kinase assay panel
T8 sequence (O95835 1-1130): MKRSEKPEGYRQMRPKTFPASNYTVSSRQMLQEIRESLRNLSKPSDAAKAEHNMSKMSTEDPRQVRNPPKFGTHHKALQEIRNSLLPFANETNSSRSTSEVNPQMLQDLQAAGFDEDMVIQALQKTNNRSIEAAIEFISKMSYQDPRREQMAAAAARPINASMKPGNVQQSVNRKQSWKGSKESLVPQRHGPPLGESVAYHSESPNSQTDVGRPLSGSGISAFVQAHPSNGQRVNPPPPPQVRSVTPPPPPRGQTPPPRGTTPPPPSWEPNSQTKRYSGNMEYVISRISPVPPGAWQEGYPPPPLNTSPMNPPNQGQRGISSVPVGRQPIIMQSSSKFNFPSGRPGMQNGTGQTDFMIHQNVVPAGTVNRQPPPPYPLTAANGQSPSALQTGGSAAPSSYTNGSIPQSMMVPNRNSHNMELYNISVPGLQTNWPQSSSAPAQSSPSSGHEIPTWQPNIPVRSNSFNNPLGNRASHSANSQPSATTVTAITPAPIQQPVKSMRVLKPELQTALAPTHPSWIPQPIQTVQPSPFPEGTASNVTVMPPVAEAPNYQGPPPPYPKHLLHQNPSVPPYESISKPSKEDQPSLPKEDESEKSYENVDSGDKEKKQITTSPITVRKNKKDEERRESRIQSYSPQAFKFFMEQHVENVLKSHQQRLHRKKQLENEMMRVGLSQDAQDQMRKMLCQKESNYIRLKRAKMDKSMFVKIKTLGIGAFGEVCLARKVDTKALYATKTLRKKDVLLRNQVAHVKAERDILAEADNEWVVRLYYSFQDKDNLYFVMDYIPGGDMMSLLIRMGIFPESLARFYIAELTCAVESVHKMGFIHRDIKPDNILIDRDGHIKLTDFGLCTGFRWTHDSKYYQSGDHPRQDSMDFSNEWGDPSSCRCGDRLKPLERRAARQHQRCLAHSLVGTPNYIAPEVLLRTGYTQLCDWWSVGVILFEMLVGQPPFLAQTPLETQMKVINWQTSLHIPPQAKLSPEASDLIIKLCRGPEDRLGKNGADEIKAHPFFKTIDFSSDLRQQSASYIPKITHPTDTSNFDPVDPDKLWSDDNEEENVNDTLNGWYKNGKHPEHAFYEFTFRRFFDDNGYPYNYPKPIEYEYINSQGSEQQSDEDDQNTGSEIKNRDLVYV
Procedure, shortened: as §1

[9] = target: T9, kinases of the scanMAX Kinase assay panel (Homo sapiens, UniProt Q14004); details: CDC2L5; 1 uM
T9 construct: purchased DiscoverX Co. (contract measurement) scanMAX Kinase assay panel
T9 sequence (Q14004 whole entry): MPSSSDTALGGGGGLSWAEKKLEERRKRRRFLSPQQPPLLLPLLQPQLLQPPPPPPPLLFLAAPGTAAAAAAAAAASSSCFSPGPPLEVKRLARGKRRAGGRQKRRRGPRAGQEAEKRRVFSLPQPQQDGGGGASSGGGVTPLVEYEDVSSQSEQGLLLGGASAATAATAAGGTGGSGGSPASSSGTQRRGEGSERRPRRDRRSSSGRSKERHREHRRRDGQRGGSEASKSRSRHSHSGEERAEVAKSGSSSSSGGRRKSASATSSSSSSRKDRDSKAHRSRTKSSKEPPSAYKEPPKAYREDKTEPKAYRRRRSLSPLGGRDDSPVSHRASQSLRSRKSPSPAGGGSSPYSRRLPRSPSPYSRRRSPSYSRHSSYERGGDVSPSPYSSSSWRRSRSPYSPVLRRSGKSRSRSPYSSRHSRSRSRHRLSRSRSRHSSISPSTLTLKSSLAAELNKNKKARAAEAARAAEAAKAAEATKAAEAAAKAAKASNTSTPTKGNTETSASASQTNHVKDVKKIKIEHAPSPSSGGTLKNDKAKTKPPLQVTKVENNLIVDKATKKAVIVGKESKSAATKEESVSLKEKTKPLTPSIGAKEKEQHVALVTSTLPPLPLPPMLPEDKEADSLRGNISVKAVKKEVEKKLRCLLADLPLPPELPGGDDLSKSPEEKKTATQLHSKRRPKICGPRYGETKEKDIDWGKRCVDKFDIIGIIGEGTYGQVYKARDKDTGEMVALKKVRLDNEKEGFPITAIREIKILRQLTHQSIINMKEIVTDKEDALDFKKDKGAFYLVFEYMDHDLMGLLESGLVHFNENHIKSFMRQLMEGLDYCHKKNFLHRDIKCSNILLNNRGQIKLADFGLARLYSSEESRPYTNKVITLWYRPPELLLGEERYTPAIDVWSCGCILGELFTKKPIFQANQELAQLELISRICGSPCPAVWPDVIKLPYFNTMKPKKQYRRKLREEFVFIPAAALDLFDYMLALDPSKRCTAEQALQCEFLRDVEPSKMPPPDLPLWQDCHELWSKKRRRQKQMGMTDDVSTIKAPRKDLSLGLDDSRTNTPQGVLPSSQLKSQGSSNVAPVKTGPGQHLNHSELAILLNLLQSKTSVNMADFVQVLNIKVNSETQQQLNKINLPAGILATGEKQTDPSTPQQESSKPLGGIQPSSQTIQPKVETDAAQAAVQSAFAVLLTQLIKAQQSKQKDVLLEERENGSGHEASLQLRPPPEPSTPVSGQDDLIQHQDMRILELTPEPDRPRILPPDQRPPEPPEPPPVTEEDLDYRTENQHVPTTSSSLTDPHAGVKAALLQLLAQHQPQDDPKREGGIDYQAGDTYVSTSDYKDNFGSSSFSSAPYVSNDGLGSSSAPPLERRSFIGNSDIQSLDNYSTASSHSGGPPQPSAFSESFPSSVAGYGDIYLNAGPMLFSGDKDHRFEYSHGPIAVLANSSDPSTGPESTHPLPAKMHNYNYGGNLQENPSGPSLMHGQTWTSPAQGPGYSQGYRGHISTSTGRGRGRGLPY
Procedure, shortened: as §1

[10] = target: T10, kinases of the scanMAX Kinase assay panel (Homo sapiens, UniProt Q05397); details: FAK; 1 uM
T10 construct: purchased DiscoverX Co. (contract measurement) scanMAX Kinase assay panel
Procedure, shortened: as §1

For `CCNc1nc(Nc2ccc(C(=O)N3CCC(N4CCOCC4)CC3)cc2OC)nc2[nH]cc(C(F)(F)F)c12` [Example 104, (4-((4-(ethylamino)-5-(trifluoromethyl)-7H-pyrrolo[2,3-d]pyrimidine-2-yl)amino)-3-methoxyphenyl)(4-morpholinopiperidine-1-yl)methanone], the remaining binding at 1 µM [1] was 100%, the remaining binding at 1 µM [2] was 100% and the remaining binding at 1 µM [3] was 96%. For the same molecule, the remaining binding at 1 µM [4] was 36%, the remaining binding at 1 µM [5] was 88% and the remaining binding at 1 µM [6] was 100%. For the same molecule, the remaining binding at 1 µM [7] was 90%, the remaining binding at 1 µM [8] was 100% and the remaining binding at 1 µM [9] was 100%. It also gave a remaining binding at 1 µM [10] of 3.8%.

With `CC1(Nc2nc(Nc3cnn([C@H]4CCN(C5COC5)C[C@@H]4F)c3Cl)nc3[nH]cc(C#N)c23)CC1` [Example 52, 2-((5-chloro-1-((3S,4S)-3-fluoro-1-(oxetane-3-yl)piperidine-4-yl)-1H-pyrazole-4-yl)amino)((1-methylcyclopropyl)amino)-7H-pyrrolo[2,3-d]pyrimidine-5-carbonitrile] the remaining binding at 1 µM [1] was 100%, the remaining binding at 1 µM [2] was 100% and the remaining binding at 1 µM [3] was 4.4%. For the same molecule, the remaining binding at 1 µM [4] was 1.3%, the remaining binding at 1 µM [5] was 70% and the remaining binding at 1 µM [6] was 92%. It also gave a remaining binding at 1 µM [7] of 68%, a remaining binding at 1 µM [8] of 35% and a remaining binding at 1 µM [9] of 97%. It also gave a remaining binding at 1 µM [10] of 0.3%.

In the case of `CNc1nc(Nc2ccc(C(=O)N3CCOCC3)cc2OC)nc2[nH]cc(C#N)c12` [Example 1, 2-((2-methoxy-4-(morpholine-4-carbonyl)phenyl)amino)-4-(methylamino)-7H-pyrrolo[2,3-d]pyrimidine-5-carbonitrile], the remaining binding at 1 µM [1] is reported as 63%, the remaining binding at 1 µM [2] is reported as 81% and the remaining binding at 1 µM [3] is reported as 90%. The remaining binding at 1 µM [4] was 61%, the remaining binding at 1 µM [5] was 100% and the remaining binding at 1 µM [6] was 98%. The remaining binding at 1 µM [7] was 80%, the remaining binding at 1 µM [8] was 100% and the remaining binding at 1 µM [9] was 82%. For the same molecule, the remaining binding at 1 µM [10] was 55%.
